Legend:
soybean plants [1] = assay: Accelerated aging test of seeds harvested from treated soybean plants; type: in vivo
Procedure: Another germination test, the accelerated aging test (AA), estimates the carryover potential of a seed lot in warehouse storage. The seeds are exposed to high temperatures and high relative humidity for short periods of time that cause seed deterioration. Seeds are suspended over water in a chamber for a period of time, for example 72 hours (wheat and soybeans) or 96 hours (corn), then tested in a standard warm germination test. This test only is usually used on seed whose longevity was in question.
(§1) In the method of the present invention, seeds harvested from plants treated with a foliar insecticide, or seeds harvested from plants whose pre-planted seeds were treated with a seed treatment insecticide, or seeds harvested from plants that underwent both treatments, both as the pre-planted seed (seed treatment) and as the post emergent plant (foliar insecticide treatment) were tested in warm germination and accelerated aging tests to determine the health and quality of the harvested seeds. In accordance with the germination tests, it was discovered that seed-producing plants resulting from the growers' application of insecticides at the seed stage, the foliar stage, and both, not only were healthier plants, but they also produced healthier seeds.
(§2) Germination studies were conducted on soybean plants comparing plants treated with a combination of fungicides with plants (1) wherein only insecticidal seed treatment was applied; (2) wherein insecticidal seed treatment was applied followed by foliar insecticidal treatment on the resulting plant; and (3) wherein only foliar insecticide was applied to a plant grown from untreated seed.

soybean plants [2] = assay: Warm germination test of seeds harvested from treated soybean plants; type: in vivo
From the text: A preferred test of seed germination is a warm germination test because it is used for labeling purposes. Germination is defined as: “the emergence and development from the seed embryo of those essential structures which are indicative of the ability to produce a normal plant under favorable conditions.” The warm germination test reflects the stand producing potential of a seed lot under ideal planting conditions. In a typical warm germination test, 400 seeds from each seed lot are placed under moist conditions on blotters, rolled towels, or sand and maintained at 77° F. for about seven days. At the end of this period the seedlings are categorized as normal, abnormal, or diseased, and dead or hard seeds. The percentage germination is calculated from the number of normal seedlings from the total number of seeds evaluated.
as §1, §2

[3] = foliar insecticide only (2 applications), untreated seed
[4] = insecticidal seed treatment only, 30 g
[5] = insecticidal seed treatment only, 50 g

SMILES	Accelerated Aging (+/−Std. Error) (soybean plants [1]; [3])	Accelerated Aging (+/−Std. Error) (soybean plants [1]; foliar insecticide only (8/8))	Accelerated Aging (+/−Std. Error) (soybean plants [1]; foliar insecticide only (8/12))	Warm Germination (+/−Std. Error) (soybean plants [2]; [3])	Warm Germination (+/−Std. Error) (soybean plants [2]; foliar insecticide only (8/8))	Warm Germination (+/−Std. Error) (soybean plants [2]; foliar insecticide only (8/12))	Accelerated Aging (+/−Std. Error) (soybean plants [1]; [4])	Accelerated Aging (+/−Std. Error) (soybean plants [1]; [5])	Warm Germination (+/−Std. Error) (soybean plants [2]; [4])	Warm Germination (+/−Std. Error) (soybean plants [2]; [5])
CC1(C)[C@H](C(=O)O[C@H](C#N)c2cccc(Oc3ccccc3)c2)[C@@H]1/C=C(\Cl)C(F)(F)F (racemic) [lambda cyhalothrin]	89.3 (1.06)	89.7 (1.23)	86.5 (1.23)	92.5 (0.70)	92.9 (0.81)	91.1 (0.81)	–	–	–	–
CN1COCN(Cc2cnc(Cl)s2)/C1=N\[N+](=O)[O-] [Thiamethoxam, thiamethoxam]	–	–	–	–	–	–	86.7 (0.95)	90.4 (0.98)	91.4 (0.63)	91.6 (0.65)
